According to patent US20250042885A1, “SOLID STATE FORMS OF LOTILANER AND PROCESS FOR PREPARATION THEREOF” (TEVA PHARMACEUTICALS INTERNATIONAL GMBH, priority 2021, published 2025):

Key:
Format in all cases: physicochemical
[1] = Storage stability at different temperatures and/or relative humidities (XRPD)
Procedure: (§1) Prior to analysis, the samples were gently ground by means of mortar and pestle in order to obtain a fine powder. The ground sample was adjusted into a cavity of the sample holder and the surface of the sample was smoothed by means of a cover glass.
(§2) • Scan range: 2-40 degrees 2-theta; • Scan mode: continuous; • Step size: 0.05 degrees; • Time per step: 0.5 s; • Sample spin: 30 rpm; • Sample holder: PMMA specimen holder ring with silicon low background holder.
Samples of Lotilaner forms were subjected to conditions of different temperatures and/or relative humidities. XRPD analysis was performed on the samples after 1, 3 or 6 months.

[2] = Storage stability at different relative humidities (XRPD); conditions: for at least 7 days; conclusion from Table 1
Procedure: as §1, §2
Samples of Lotilaner forms were subjected to conditions of different relative humidities at ambient temperature. XRPD analysis was performed on the samples after 7 days.

[3] = Grinding experiments (strong grinding, solvent drop grinding; XRPD)
Procedure: (§3) X-ray diffraction was performed on X-Ray powder diffractometer Bruker D8 Advance; CuK_radiation (λ=1.5418 Å); Lynx eye detector; laboratory temperature 22-25° C.; PMMA specimen holder ring. Prior to analysis, the samples were gently ground by means of mortar and pestle in order to obtain a fine powder. The ground sample was adjusted into a cavity of the sample holder and the surface of the sample was smoothed by means of a cover glass.
as §2
Samples of Lotilaner forms were subjected to strong grinding, and to solvent drop grinding in water, ethanol or isopropanol. Grinding was carried out on the samples alone, or in the presence of ethanol, water or isopropanol. In these experiments, about 20 mg of the sample is placed in a mortar and ground with a pestle for 2 minutes. The solvent, when used, as added to the crystalline material before grinding, in a volume of 10 microlitres. XRPD analysis performed on each of the samples after the grinding experiment, confirmed no change in the starting material (Table 3): […]

[4] = Thermal stability (heating, XRPD)
Procedure: as §3, §2
Samples of Lotilaner forms were subjected to heating up to 100° C. for 30 minutes. XRPD analysis of the sample confirmed no change in the starting material (Table 4): […]

[5] = Stability to compression (XRPD)
Procedure: as §1, §2
Samples of Lotilaner forms were subjected to pressures of 2 tons for one minute. XRPD analysis was performed on the samples after 1 minute.

Cc1cc(C2=NO[C@@](c3cc(Cl)c(Cl)c(Cl)c3)(C(F)(F)F)C2)sc1C(=O)NCC(=O)NCC(F)(F)F [Form LT5 Lotilaner, 3-Methyl-N-[2-oxo-2-(2,2,2-trifluoroethylamino)ethyl]-5-[(5S)-5-(3,4,5-trichlorophenyl)-5-(trifluoromethyl)-4H-1,2-oxazol-3-yl]thiophene-2-carboxamide]
XRPD analysis after storage, 2-8° C. ([1]; 1 month (1 m)): No change
XRPD analysis after storage, 25° C., 60% RH ([1]; 1 month (1 m)): No change
XRPD analysis after storage, 40° C., 75% RH ([1]; 1 month (1 m)): No change

Cc1cc(C2=NO[C@@](c3cc(Cl)c(Cl)c(Cl)c3)(C(F)(F)F)C2)sc1C(=O)NCC(=O)NCC(F)(F)F [Form LT4 Lotilaner, 3-Methyl-N-[2-oxo-2-(2,2,2-trifluoroethylamino)ethyl]-5-[(5S)-5-(3,4,5-trichlorophenyl)-5-(trifluoromethyl)-4H-1,2-oxazol-3-yl]thiophene-2-carboxamide]
XRPD analysis after storage, 2-8° C. ([1]; 3 months (3 m)): No change
XRPD analysis after storage, 25° C., 60% RH ([1]; 3 months (3 m)): No change
XRPD analysis after storage, 40° C., 75% RH ([1]; 3 months (3 m)): No change

Cc1cc(C2=NO[C@@](c3cc(Cl)c(Cl)c(Cl)c3)(C(F)(F)F)C2)sc1C(=O)NCC(=O)NCC(F)(F)F [Form LT1 Lotilaner, 3-Methyl-N-[2-oxo-2-(2,2,2-trifluoroethylamino)ethyl]-5-[(5S)-5-(3,4,5-trichlorophenyl)-5-(trifluoromethyl)-4H-1,2-oxazol-3-yl]thiophene-2-carboxamide]
Stability after exposure to high and low relative humidity [2]: stable
XRPD analysis after storage, 2-8° C. ([1]; 6 months (6 m)): No change
XRPD analysis after storage, 25° C., 60% RH ([1]; 6 months (6 m)): No change
XRPD analysis after storage, 40° C., 75% RH ([1]; 6 months (6 m)): No change
Storage stability ([1]; conclusion from Table 2): good storage stability
XRPD analysis after strong grinding ([3]; about 20 mg ground in mortar with pestle for 2 minutes, no solvent): No change
Resistance to polymorphic changes on grinding ([3]; conclusion from Table 3): resistant to polymorphic changes
XRPD analysis after solvent-drop grinding (ethanol) ([3]; ground 2 minutes, 10 microlitres ethanol): No change
XRPD analysis after solvent-drop grinding (isopropanol) ([3]; ground 2 minutes, 10 microlitres isopropanol): No change
XRPD analysis after solvent-drop grinding (water) ([3]; ground 2 minutes, 10 microlitres water): No change
XRPD analysis after heating 100° C., 30 minutes [4]: No change
XRPD analysis results, pressure (2 tons) ([5]; 2 tons for one minute): No change
Stability under high pressure conditions ([5]; conclusion from Table 5): stable
